US20250319024A1, “TARGETED NANOPARTICLES AND THEIR USES RELATED TO INFECTIOUS DISEASE” (priority 2021, published 2025)

How the values were obtained:
T. gondii = conditions: 200 mg/kg per day for 10 days, previous studies; cited from earlier work
M. tuberculosis = conditions: literature; cited from earlier work
[1] = tested on: C. albicans, A. fumigatus, C. neoformans; experiment: Liposome binding, summary statements over all three fungal species

CC[C@H]1OC(=O)[C@H](C)[C@@H](O[C@H]2C[C@@](C)(OC)[C@@H](O)[C@H](C)O2)[C@H](C)[C@@H](O[C@@H]2O[C@H](C)C[C@H](N(C)C)[C@H]2O)[C@](C)(O)C[C@@H](C)CN(C)[C@H](C)[C@@H](O)[C@]1(C)O [Free AZI, Azithromycin]
mouse survival (T. gondii): 100%

CO[C@H]1/C=C/O[C@@]2(C)Oc3c(C)c(O)c4c(O)c(c(/C=N/N5CCN(C)CC5)c(O)c4c3C2=O)NC(=O)/C(C)=C\C=C\[C@H](C)[C@H](O)[C@@H](C)[C@@H](O)[C@@H](C)[C@H](OC(C)=O)[C@@H]1C [free RIF, rifampin]
doses reported to control murine infections (M. tuberculosis): ~10 mg/kg/day

B1: DCS12: recombinant human DC-SIGN isoform, CRD fused to neck repeats 1 and 2, SEQ ID NO: 12 (protein)
chain: MAHHHHHHYGTGSGKGKGSGSGQSRQDAIYQNLTQLKAAVGELSEKSKLQEIYQELTQLKAAVERLCHPCPWEWTFFQGNCYFMSNSQRNWHDSITACKEVGAQLVVIKSAEEQNFLQLQSSRSNRFTWMGLSDLNQEGTWQWVDGSPLLPSFKQYWNRGEPNNVGEEDCAEFSGNGWNDDKCNLAKFWICKKSAASCSRDEEQFLSPAPATPNPPPA
bound more efficiently than untargeted AmB-LLs or BSA-AmB-LLs [1]: more than an order of magnitude
